From ChEMBL document CHEMBL6078624, “Structure-based discovery of a 4,5-Dihydropyrazole-cored PET ligand for imaging of receptor-interacting serine/threonine-protein kinase 1 (RIPK1) in the brain” (Eur J Med Chem, 2024)

Assay: Inhibition of TSZ-induced necroptosis in human HT-29 cells by CellTiter-Glo luminescent cell viability assay

SMILES	EC50
O=C(c1cccc(F)n1)N1CCC(C(=O)N2N=CCC2c2cc(F)cc(F)c2)CC1 (configuration not stated)	100 nM
Cc1ccc(C2CC=NN2C(=O)C2CCN(C(=O)c3cccc(F)n3)CC2)cc1F (configuration not stated)	19.9 nM
